Calls of active or inactive are those of the source. For most assays here, no stated cut-off is given here; in the data, actives have a measured Kd and inactives only a lower limit.
Legend:
[1] = biological target: Midasin (Homo sapiens, UniProt Q9NU22)
[2] = biological target: T1, Tyrosine--tRNA ligase, cytoplasmic (Homo sapiens, UniProt P54577)
T1 sequence (P54577 whole entry): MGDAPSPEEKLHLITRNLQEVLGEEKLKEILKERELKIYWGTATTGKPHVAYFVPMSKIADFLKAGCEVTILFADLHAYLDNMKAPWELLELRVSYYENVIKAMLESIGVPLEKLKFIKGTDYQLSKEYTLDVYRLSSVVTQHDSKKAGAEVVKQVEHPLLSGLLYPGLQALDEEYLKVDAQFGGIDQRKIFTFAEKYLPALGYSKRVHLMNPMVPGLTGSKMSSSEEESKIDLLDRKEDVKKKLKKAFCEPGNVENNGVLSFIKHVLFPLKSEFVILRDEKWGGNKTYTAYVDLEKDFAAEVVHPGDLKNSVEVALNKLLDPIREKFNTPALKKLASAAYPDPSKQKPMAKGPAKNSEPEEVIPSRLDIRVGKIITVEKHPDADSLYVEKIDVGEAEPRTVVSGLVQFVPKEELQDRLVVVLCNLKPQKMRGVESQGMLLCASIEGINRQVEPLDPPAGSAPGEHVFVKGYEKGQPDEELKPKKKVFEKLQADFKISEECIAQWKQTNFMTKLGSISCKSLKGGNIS

[3] = biological target: T2, Serine/threonine-protein kinase Nek2 (Homo sapiens, UniProt P51955)
T2 sequence (P51955 whole entry): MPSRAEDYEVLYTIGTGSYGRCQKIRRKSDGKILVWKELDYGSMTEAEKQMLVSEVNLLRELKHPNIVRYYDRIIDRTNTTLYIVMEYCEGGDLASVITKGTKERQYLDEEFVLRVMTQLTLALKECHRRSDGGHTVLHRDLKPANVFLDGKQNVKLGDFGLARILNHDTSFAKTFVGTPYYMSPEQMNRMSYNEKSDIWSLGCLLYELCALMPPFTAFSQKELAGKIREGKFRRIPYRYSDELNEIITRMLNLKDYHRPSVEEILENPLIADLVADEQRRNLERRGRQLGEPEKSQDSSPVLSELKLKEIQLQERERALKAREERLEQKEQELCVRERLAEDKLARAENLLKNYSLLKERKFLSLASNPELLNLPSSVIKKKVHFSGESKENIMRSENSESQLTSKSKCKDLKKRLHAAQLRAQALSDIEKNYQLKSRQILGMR

[4] = biological target: Calcium/calmodulin-dependent protein kinase kinase 2 (Homo sapiens, UniProt Q96RR4)
Chain of Calcium/calmodulin-dependent protein kinase kinase 2 (Q96RR4 whole entry): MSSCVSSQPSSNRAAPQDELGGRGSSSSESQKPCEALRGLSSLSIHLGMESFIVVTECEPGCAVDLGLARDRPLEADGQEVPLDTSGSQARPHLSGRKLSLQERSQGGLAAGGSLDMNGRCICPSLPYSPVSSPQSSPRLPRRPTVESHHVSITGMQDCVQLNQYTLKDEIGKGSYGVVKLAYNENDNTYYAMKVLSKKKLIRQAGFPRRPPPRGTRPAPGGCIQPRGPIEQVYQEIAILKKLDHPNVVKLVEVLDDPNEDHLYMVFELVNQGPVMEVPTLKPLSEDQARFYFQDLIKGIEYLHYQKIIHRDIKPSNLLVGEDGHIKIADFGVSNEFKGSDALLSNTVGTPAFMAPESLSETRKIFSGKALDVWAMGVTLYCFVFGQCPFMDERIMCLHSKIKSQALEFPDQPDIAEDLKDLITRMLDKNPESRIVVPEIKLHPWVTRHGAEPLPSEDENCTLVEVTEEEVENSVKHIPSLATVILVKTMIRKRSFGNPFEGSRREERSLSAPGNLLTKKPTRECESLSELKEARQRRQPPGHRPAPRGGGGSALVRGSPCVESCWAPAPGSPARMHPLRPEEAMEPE

[5] = biological target: Cyclin-dependent kinase 7 (Homo sapiens, UniProt P50613)
Chain of Cyclin-dependent kinase 7 (P50613 whole entry): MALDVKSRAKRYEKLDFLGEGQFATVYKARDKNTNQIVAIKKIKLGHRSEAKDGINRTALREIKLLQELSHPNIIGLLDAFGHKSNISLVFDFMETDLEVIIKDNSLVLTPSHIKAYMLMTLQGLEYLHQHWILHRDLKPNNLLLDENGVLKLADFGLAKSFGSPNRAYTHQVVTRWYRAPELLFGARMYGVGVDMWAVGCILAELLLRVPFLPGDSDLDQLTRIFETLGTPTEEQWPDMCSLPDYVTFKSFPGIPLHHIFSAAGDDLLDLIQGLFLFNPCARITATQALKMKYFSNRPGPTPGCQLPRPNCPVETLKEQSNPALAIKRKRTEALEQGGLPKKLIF

[6] = biological target: T3, Ferrochelatase, mitochondrial (Homo sapiens, UniProt P22830)
T3 sequence (P22830 whole entry): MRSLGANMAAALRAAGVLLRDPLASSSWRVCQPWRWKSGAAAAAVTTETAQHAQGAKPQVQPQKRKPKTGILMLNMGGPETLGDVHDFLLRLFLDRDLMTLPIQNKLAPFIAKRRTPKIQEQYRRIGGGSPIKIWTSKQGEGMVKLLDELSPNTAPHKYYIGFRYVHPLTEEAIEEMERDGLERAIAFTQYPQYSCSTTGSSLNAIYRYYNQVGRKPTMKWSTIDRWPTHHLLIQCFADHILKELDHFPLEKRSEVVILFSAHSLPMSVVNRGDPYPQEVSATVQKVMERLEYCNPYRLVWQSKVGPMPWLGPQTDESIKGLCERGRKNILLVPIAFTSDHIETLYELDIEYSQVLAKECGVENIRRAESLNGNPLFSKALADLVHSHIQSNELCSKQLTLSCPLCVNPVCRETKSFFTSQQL

[7] = biological target: T4, Dual specificity mitogen-activated protein kinase kinase 6 (Homo sapiens, UniProt P52564)
T4 sequence (P52564 whole entry): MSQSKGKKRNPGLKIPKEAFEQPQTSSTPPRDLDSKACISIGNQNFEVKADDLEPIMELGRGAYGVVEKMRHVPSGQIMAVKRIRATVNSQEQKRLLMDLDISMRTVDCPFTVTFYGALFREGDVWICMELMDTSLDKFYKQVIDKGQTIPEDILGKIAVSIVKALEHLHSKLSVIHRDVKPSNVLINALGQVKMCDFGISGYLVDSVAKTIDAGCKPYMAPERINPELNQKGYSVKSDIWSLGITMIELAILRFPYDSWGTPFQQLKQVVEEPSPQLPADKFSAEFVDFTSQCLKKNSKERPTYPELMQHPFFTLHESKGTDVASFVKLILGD

[8] = biological target: Proto-oncogene tyrosine-protein kinase Src (Homo sapiens, UniProt P12931)
Chain of Proto-oncogene tyrosine-protein kinase Src (P12931 2-536 limits assumed): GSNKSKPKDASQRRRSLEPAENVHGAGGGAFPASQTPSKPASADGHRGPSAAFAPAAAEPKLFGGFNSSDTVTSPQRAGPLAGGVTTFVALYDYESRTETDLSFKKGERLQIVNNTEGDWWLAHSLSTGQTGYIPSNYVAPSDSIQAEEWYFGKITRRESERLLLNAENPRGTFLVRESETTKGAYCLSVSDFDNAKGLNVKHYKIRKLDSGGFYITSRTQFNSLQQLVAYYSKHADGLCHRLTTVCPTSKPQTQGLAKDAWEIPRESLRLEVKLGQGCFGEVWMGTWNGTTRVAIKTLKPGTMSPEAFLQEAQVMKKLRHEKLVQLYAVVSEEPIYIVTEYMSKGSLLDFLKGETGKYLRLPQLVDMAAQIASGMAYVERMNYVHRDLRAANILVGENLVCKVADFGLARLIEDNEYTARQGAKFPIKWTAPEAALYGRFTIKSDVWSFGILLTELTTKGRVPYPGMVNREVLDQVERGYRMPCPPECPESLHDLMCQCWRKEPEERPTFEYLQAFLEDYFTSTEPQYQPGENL

[9] = biological target: T5, Uncharacterized protein FLJ45252 (Homo sapiens, UniProt Q6ZSR9); settings: read-out: Kd apparent; k-562, colo 205, sk-n-be(2) and mv-4-11
T5 sequence (Q6ZSR9 whole entry): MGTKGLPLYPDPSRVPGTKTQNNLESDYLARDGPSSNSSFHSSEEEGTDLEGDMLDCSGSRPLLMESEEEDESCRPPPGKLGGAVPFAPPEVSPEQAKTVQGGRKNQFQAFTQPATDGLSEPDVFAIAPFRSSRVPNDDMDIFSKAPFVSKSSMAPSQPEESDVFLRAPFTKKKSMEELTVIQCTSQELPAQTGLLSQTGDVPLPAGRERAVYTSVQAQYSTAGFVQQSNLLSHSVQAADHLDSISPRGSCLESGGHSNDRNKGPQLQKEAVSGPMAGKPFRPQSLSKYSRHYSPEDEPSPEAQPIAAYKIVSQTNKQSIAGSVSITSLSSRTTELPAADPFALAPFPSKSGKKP

[10] = biological target: T6, AarF domain-containing protein kinase 1 (Homo sapiens, UniProt Q86TW2)
T6 sequence (Q86TW2 whole entry): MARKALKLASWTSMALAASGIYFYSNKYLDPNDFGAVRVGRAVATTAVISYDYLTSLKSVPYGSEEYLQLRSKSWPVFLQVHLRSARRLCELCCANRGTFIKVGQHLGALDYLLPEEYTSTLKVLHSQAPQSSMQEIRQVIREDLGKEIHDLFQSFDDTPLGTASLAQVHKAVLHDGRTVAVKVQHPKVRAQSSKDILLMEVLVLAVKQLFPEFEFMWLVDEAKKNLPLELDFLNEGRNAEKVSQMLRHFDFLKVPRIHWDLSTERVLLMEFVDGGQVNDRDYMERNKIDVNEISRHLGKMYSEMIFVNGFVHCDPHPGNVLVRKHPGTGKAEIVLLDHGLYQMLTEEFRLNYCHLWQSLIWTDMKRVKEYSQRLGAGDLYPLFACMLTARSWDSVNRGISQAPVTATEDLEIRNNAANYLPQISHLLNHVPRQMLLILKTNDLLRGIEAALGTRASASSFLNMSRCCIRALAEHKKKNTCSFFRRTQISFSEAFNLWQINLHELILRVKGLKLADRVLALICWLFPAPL

Kd [1] | Kd [2] | Kd [3] | Kd [4] | Kd [5] | Kd [6] | Kd [7] | Kd [8] | Kd [9] | Kd [10] | Compound
> 30 µM (inactive) | > 30 µM (inactive) | > 30 µM (inactive) | > 30 µM (inactive) | > 30 µM (inactive) | > 30 µM (inactive) | > 30 µM (inactive) | > 30 µM (inactive) | > 30 µM (inactive) | > 30 µM (inactive) | Cc1cc([C@@H](C)Nc2ccccc2C(=O)O)c2nc(N3CCOCC3)cc(=O)n2c1 [AZD-6482]
> 30 µM (inactive) | > 30 µM (inactive) | > 30 µM (inactive) | > 30 µM (inactive) | > 30 µM (inactive) | 6.9 µM (active) | > 30 µM (inactive) | > 30 µM (inactive) | > 30 µM (inactive) | > 30 µM (inactive) | COc1ccc(-c2ccc3c(N4CCOC[C@@H]4C)nc(N4CCOC[C@@H]4C)nc3n2)cc1CO [AZD-8055]
> 30 µM (inactive) | > 30 µM (inactive) | > 30 µM (inactive) | > 30 µM (inactive) | > 30 µM (inactive) | > 30 µM (inactive) | > 30 µM (inactive) | > 30 µM (inactive) | > 30 µM (inactive) | > 30 µM (inactive) | C[C@@H](Nc1cc(F)cc(F)c1)c1cc(C(=O)N(C)C)cc2c(=O)cc(N3CCOCC3)oc12 [AZD-8186]
> 30 µM (inactive) | > 30 µM (inactive) | > 30 µM (inactive) | > 30 µM (inactive) | > 30 µM (inactive) | > 30 µM (inactive) | > 30 µM (inactive) | > 30 µM (inactive) | > 30 µM (inactive) | > 30 µM (inactive) | Cc1ccc(NC(=O)c2ccc(CN3CC[C@H](N(C)C)C3)c(C(F)(F)F)c2)cc1Nc1nccc(-c2cncnc2)n1 [BAFETINIB]
> 30 µM (inactive) | > 30 µM (inactive) | > 30 µM (inactive) | > 30 µM (inactive) | > 30 µM (inactive) | > 30 µM (inactive) | > 30 µM (inactive) | > 30 µM (inactive) | 0.078 µM (active) | > 30 µM (inactive) | CCS(=O)(=O)N1CC(CC#N)(n2cc(-c3ncnc4[nH]ccc34)cn2)C1 [BARICITINIB]
> 30 µM (inactive) | > 30 µM (inactive) | > 30 µM (inactive) | > 30 µM (inactive) | > 30 µM (inactive) | > 30 µM (inactive) | > 30 µM (inactive) | > 30 µM (inactive) | > 30 µM (inactive) | > 30 µM (inactive) | Cc1cc2c(F)c(Oc3ncnn4cc(OC[C@@H](C)OC(=O)[C@H](C)N)c(C)c34)ccc2[nH]1 [BRIVANIB ALANINATE]
> 30 µM (inactive) | > 30 µM (inactive) | > 30 µM (inactive) | > 30 µM (inactive) | > 30 µM (inactive) | > 30 µM (inactive) | > 30 µM (inactive) | > 30 µM (inactive) | > 30 µM (inactive) | > 30 µM (inactive) | CNC(=O)c1ccc(-c2cnc3ncc(Cc4ccc5ncccc5c4)n3n2)cc1F [CAPMATINIB]
> 30 µM (inactive) | > 30 µM (inactive) | > 30 µM (inactive) | > 30 µM (inactive) | > 30 µM (inactive) | > 30 µM (inactive) | > 30 µM (inactive) | > 30 µM (inactive) | > 30 µM (inactive) | > 30 µM (inactive) | COC(=O)N[C@@H](C)CNc1nccc(-c2cn(C(C)C)nc2-c2cc(Cl)cc(NS(C)(=O)=O)c2F)n1 [ENCORAFENIB]
> 30 µM (inactive) | > 30 µM (inactive) | > 30 µM (inactive) | > 30 µM (inactive) | > 30 µM (inactive) | > 30 µM (inactive) | > 30 µM (inactive) | > 30 µM (inactive) | > 30 µM (inactive) | > 30 µM (inactive) | CO[C@H]1C[C@@H]2CC[C@@H](C)[C@@](O)(O2)C(=O)C(=O)N2CCCC[C@H]2C(=O)O[C@H]([C@H](C)C[C@@H]2CC[C@@H](OCCO)[C@H](OC)C2)CC(=O)[C@H](C)/C=C(\C)[C@@H](O)[C@@H](OC)C(=O)[C@H](C)C[C@H](C)/C=C/C=C/C=C/1C [EVEROLIMUS]
> 30 µM (inactive) | > 30 µM (inactive) | > 30 µM (inactive) | > 30 µM (inactive) | > 30 µM (inactive) | > 30 µM (inactive) | > 30 µM (inactive) | > 30 µM (inactive) | > 30 µM (inactive) | > 30 µM (inactive) | Cn1cc(-c2ccc3nnc(C(F)(F)c4ccc5ncccc5c4)n3n2)cn1 [JNJ-38877605]
> 30 µM (inactive) | > 30 µM (inactive) | > 30 µM (inactive) | > 30 µM (inactive) | > 30 µM (inactive) | > 30 µM (inactive) | > 30 µM (inactive) | > 30 µM (inactive) | > 30 µM (inactive) | > 30 µM (inactive) | Cc1c(F)cc(C(=O)NC2CC2)cc1-c1ccc(C(=O)NCC(C)(C)C)cn1 [LOSMAPIMOD]
> 30 µM (inactive) | > 30 µM (inactive) | > 30 µM (inactive) | > 30 µM (inactive) | > 30 µM (inactive) | > 30 µM (inactive) | > 30 µM (inactive) | > 30 µM (inactive) | > 30 µM (inactive) | > 30 µM (inactive) | Cn1cc(-c2ccc(F)c(C(F)(F)F)c2)nc1C1CCN(c2ncnc3[nH]ncc23)CC1 [LY-2584702]

Compound | Kd [1] | Kd [2] | Kd [3] | Kd [4] | Kd [5] | Kd [6] | Kd [7] | Kd [8] | Kd [9] | Kd [10]
O=C(c1ccc(F)c(F)c1Nc1ccc(I)cc1F)N1CC(O)([C@@H]2CCCCN2)C1 [COBIMETINIB] | > 30 µM (inactive) | > 30 µM (inactive) | > 30 µM (inactive) | > 30 µM (inactive) | > 30 µM (inactive) | > 30 µM (inactive) | > 30 µM (inactive) | > 30 µM (inactive) | > 30 µM (inactive) | > 30 µM (inactive)
